Results from patent publication US4748274A, “4-hydroxy-4-(substituted alkenyl)cyclohexanecarboxylic acids” (Merrell Dow Pharmaceuticals Inc., priority 1986, dated 1988).

Key:
[1] = target: T1, 3H-LTD4 specific receptor (guinea pig lung membranes) (Cavia porcellus, UniProt Q2NNR5); experiment: 3H-LTD4 specific receptor binding in guinea pig lung membranes; details: 3H-LTD4, 50 mM Tris-HCl pH 7.6, 37° C., 20-40 min; read-out: G.P. LUNG SPECIFIC BINDING IC50
T1 construct: from tissue; host or cells: guinea pig lung membranes
T1 sequence (Q2NNR5 1-340): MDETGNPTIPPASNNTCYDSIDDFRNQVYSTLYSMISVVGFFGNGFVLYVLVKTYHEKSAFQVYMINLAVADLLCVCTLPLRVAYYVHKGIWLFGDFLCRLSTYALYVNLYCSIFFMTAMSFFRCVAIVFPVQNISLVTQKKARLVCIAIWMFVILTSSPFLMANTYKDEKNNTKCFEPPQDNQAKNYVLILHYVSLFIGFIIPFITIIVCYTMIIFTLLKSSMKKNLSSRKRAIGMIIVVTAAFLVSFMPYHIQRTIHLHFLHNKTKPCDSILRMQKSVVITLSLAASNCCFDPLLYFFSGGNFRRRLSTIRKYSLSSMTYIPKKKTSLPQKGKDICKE
Description: 3H-LTD4 - Specific Receptor Binding in Guinea Pig Lung Membranes
Male guinea pigs were sacrificed and the lungs were removed and placed in ice cold 50 mM Tris-HCl buffer, pH 7.4. The lungs were then homogenized with a Polytron homogenizer and the homogenate was centrifuged at 1000 g for 10 minutes at 4° C. The supernatant was then centrifuged at 30,000 g for 15 minutes at 4° C. to obtain the membrane pellet. This pellet was resuspended in 50 mM Tris-HCl to provide the working suspension of lung membranes. Binding assays were then carried out in 50 mM Tris-HCl at pH 7.6 and 37° C. using incubation periods of 20-40 min. Separation of bound ^3 H-LTD4 from free ^3 H-LTD4 were performed by rapid vacuum filtration through Whatman GF/B glass fiber filters using ice cold Tris-HCl buffer and three 4 ml washes. Filtration and washing were completed in less than 8 seconds. The radioactivity on the filters was then measured. Specific binding of ^3 H-LTD4 was defined as the binding of ^3 H-LTD4 in the absence of unlabelled LTD4 minus the binding of ^3 H-LTD4 in the presence of 2×10^-7 M unlabelled LTD4. Specific binding of ^3 H-LTD4 was 60-80% of total binding. […] In these tests increasing concentrations of the agent are used to block the ^3 H-LTD4 specific binding. The concentration that reduces the specific binding of ^3 H-LTD4 by 50% is termed the IC50.

[2] = target: T2, leukotriene D4 (longitudinal muscle of guinea pig ileum) (Cavia porcellus, UniProt Q2NNR5); experiment: Antagonism of leukotriene D4 contraction, longitudinal muscle of guinea pig ileum; format: cell-based; details: LTD4 concentration-response, 15 min preincubation, 1 μM indomethacin, 37° C., Arunlakshana and Schild method; for Kb: read-out: G.P. ILEUM pA2 (LTD4) (converted)
T2 construct: The longitudinal muscle was then carefully dissected from the circular muscle of the ileum; from tissue; host or cells: guinea pig terminal ileum, longitudinal muscle segments
T2 sequence (Q2NNR5 1-340): T1 sequence (Q2NNR5 1-340)
Description: Longitudinal Muscle of Guinea Pig Ileum
Male, Hartley-Duncan, guinea pigs were sacrificed by cervical dislocation. The terminal portion of the ileum was removed, rinsed, and placed in Burn's modified Tyrode's solution. The longitudinal muscle was then carefully dissected from the circular muscle of the ileum. The longitudinal muscle was cut into 1-2 cm. segments which were placed in a tissue bath containing oxygenated Burn's modified Tyrode's solution warmed to 37° C. A tension of 1.0 gram was then placed on each segment of muscle. After equilibration for 1 hour, 1 μM Indomethacin was added to each bath. After 5 minutes, each tissue segment was then exposed to a concentration of 60 nM leukotriene D4. This response was then considered to be the initial maximal contraction that each segment will produce. After washing the tissue several times, over a 1 hour period, 1 μM lndomethacin was again added to each bath. After a 5 minute period the test agent or vehicle was added to the bath. After 15 minutes, a concentration-response curve was generated using cumulatively increasing concentrations of leukotriene D4. The concentration-response was then compared to the initial maximum contraction. A test compound was considered active, if at concentrations up to 100 μM, it produces a significant shift to the right of the concentration-response relationship to leukotriene D4. The antagonist activity was quantitated in terms of a pA2 value calculated according to the method described by Arunlakshana and Schild, (Brit. J. Pharmac. Chemotherap. 14; 48, 1959).

[3] = tested on: leukotriene D4 (induced bronchoconstriction); experiment: In vivo leukotriene D4 antagonist activity in anesthetized guinea pigs, modified Konzett-Rossler preparation; design: species or system guinea pig; details: LTD4 50 or 100 ng/kg i.v.
Description: In Vivo Biological Activity
Compounds of the present invention were also tested for in vivo leukotriene D4 antagonist activity in anesthetized guinea pigs using a modified Konzett-Rossler preparation. Specifically, the guinea pigs were anesthetized with sodium pentobarbital and surgically prepared for artificial ventilation by a constant volume respirator. The inflation pressure produced by the respirator was measured for each inflation of the guinea pigs' lungs. Increases in inflation pressure above baseline are indicative of bronchoconstriction. After establishing a baseline inflation pressure, bronchoconstriction was induced by an intravenous challenge with 50 or 100 ng/kg leukotriene D4. This response was considered the initial response. After the inflation pressure returned to baseline, the guinea pig was treated with the desired dosage of test compound or vehicle, given intravenously (i.v.) or intraduodenally (i.d.), and rechallenged with leukotriene D at one minute [following i.v. administration]or 5 and 20 minutes [following i.d. administration]. This response was then compared to the initial response and the % inhibition of the response was determined. The results can be summarized as follows, with the inhibition values given for administration by the i.d. route being the greater of the two results obtained.

[4] = 1.0 mg/kg i.d., greater of results at 5 and 20 minutes

CCCCCCCCCCCCC/C=C\C(SCCC(=O)O)[C@]1(O)CC[C@H](C(=O)O)CC1 (relative stereo) [Example 10H, [1α,4β,4(Z)]-4-[1-[(2-CarbOxyethyl)thio]-2-hexadecenyl]-4-hydroxycyclohexanecarboxylic acid]
IC50 [1]: 8700 nM | Kb [2]: 0.245 nM

CCCCCCCCCCCCC/C=C\C(SCCCC(=O)O)[C@]1(O)CC[C@@H](C(=O)O)CC1 (relative stereo) [Example 10I, [1α,4α,4(Z)]-4-[1-[(3-carboxypropyl)thio]-2-hexadecenyl]-4-hydroxycyclohexanecarboxylic acid]
PERCENT INHIBITION ([3]; 0.05 mg/kg i.v., rechallenge at one minute): 19%

CCCCCCCCCCCCC/C=C\C(SCCCC(=O)O)[C@]1(O)CC[C@H](C(=O)O)CC1 (relative stereo) [Example 10J, [1α,4β,4(Z)]-4-[1-[(3-carboxypropyl)thio]-2-hexadecenyl]-4-hydroxycyclohexanecarboxylic acid]
PERCENT INHIBITION ([3]; 0.5 mg/kg i.d., greater of results at 5 and 20 minutes): 48% | PERCENT INHIBITION [3, 4]: 53% | IC50 [1]: 7100 nM | Kb [2]: 5.5 nM

CCCCCCCCCCCCC/C=C\C(SCCC(=O)NCC(=O)O)[C@]1(O)CC[C@H](C(=O)O)CC1 (relative stereo) [Example 10L, [1α,4β,4(Z)]-4-[1-[[3-[(carboxymethyl)amino]-3oxopropyl]thio]-2-hexadecenyl]-4-hydroxycyclohexanecarboxylic acid]
PERCENT INHIBITION ([3]; 0.5 mg/kg i.v., rechallenge at one minute): 74% | PERCENT INHIBITION [3, 4]: 25% | IC50 [1]: 8000 nM | Kb [2]: 2.69 nM

CCCCCCCCCCCCC/C=C\[C@@H](SCC(=O)O)[C@]1(O)CC[C@H](C(=O)O)CC1 [Example 10D, [4(R)-[1α,4β,4(Z)]]-4-[1-[(carboxymethyl)thio]-2-hexadecenyl]-4-hydroxycyclohexanecarboxylic acid]
Kb [2]: 0.158 nM

CCCCCCCCCCCCC/C=C\[C@@H](SCCC(=O)O)[C@]1(O)CC[C@H](C(=O)O)CC1 [Example 10F]
PERCENT INHIBITION ([3]; 0.0002 mg/kg i.v., rechallenge at one minute): 38% | PERCENT INHIBITION ([3]; 0.002 mg/kg i.v., rechallenge at one minute): 52% | PERCENT INHIBITION ([3]; 0.02 mg/kg i.v., rechallenge at one minute): 94% | PERCENT INHIBITION ([3]; 0.1 mg/kg i.d., greater of results at 5 and 20 minutes): 74% | PERCENT INHIBITION ([3]; 0.2 mg/kg i.d., greater of results at 5 and 20 minutes): 93% | Kb [2]: 0.38 nM

CCCCCCCCCCCCCC=CC(SCCC(=O)O)C1(O)CCC(C(=O)O)CC1 (stereo not drawn) [Example 11, [1α,4β,4(E)]-4-[1-[(2-carboxyethyl)thio-2hexadecenyl]-4-hydroxycyclohexanecarboxylic acid]
G.P. ILEUM pA2 (LTD4) [2]: 7.87
